Test results taken from patent US12427171B2, “Krill oil composition enriched in LPC-DHA and LPC-EPA” (Aker BioMarine Human Ingredients AS, priority 2020, dated 2025).

Assay: Rat retinal fatty acid composition after daily gavage of DHA as TAG, PC or LPC for 30 days (GC/MS)
Assay type: in vivo
Experimental: Normal male Sprague-Dawley rats (8-week-old; n=5 per group) were gavaged daily with 10 mg DHA in 250 μL corn oil in the form of TAG-DHA, di-DHA PC, or LPC-DHA for 30 days. […] All animals were on regular rodent chow that contained no DHA, but contained 17.4 mg α-linolenic acid (18:3, n-3) per g of chow. Retinal FA were analyzed by GC/MS as described in the text. The percent composition of 20:4 (n-6), 20:5 (n-3), 22:5 (n-3), and 22:6 (n-3) are shown here. The significance of differences between the treatment groups was determined by a one-way ANOVA, with Tukey multiple post-hoc test (Graphpad Prism 8.0). […] TG: triacylglycerol; PC: phosphatidylcholine; LPC: lysophosphatidylcholine; FA: fatty acid; GC/MS: gas chromatography/mass spectroscopy.
Animals and dietary treatments: All studies in animals described here were approved by the Institutional Animal Care and Use Committee of the University of Illinois at Chicago. The retina samples were obtained from our previous studies on the brain accretion of DHA in mice and rats, which were published previously. Male Sprague-Dawley rats (8-week-old) were purchased from Harlan laboratories (Indianapolis, IN, USA). Male C57 BL/J6 mice (2-4-months-old) were purchased from Jackson Laboratories (Bar Harbor. Maine).
In the first study, male Sprague-Dawley rats (n=5 per group, 8-week-old) were gavaged daily with 10 mg of DHA (40 mg DHA/kg body weight) in the form of TAG-DHA (DHASCO algal oil, DSM Nutritional Products, Columbia, MD, USA), synthetic di-DHA PC (phosphatidylcholine), or synthetic LPC-DHA (sn-1 acyl) for 30 days. The DHA was distributed equally among the three positions of TAG-DHA [17]. […] In the second study, 4-month-old male C57 BL/J6 mice (n=8 per group) were gavaged daily with 40 mg DHA/kg body weight in the form of free (unesterified) DHA, sn-1 acyl LPC-DHA, or sn-2 acyl LPC-DHA for 30 days as described previously. In the third study, male C57 BL/J6 mice (2-months-old, n=5 per group) were fed diets enriched with natural or lipase-treated fish oil or hill oil for 30 days. The total amount of omega-3 FA (eicosapentaenoic acid (EPA)+DHA) was 2.64 g/kg diet in all the diets. The untreated hill oil contained 18% of total omega-3 FA as LPC, whereas the lipase-treated hill oil contained >80% of the total omega-3 FA as LPC. The fish oil diets contained no LPC-EPA or LPC-DHA. The animals were trans-cardially perfused with ice cold phosphate buffered saline under anesthesia and the retinas were collected and kept frozen at −80° C. until the analysis.
Analytical procedures: The total lipids of retina were extracted by Bligh and Dyer procedure and the fatty acids were methylated using methanolic HCl. The fatty acid analysis was carried out by GC/MS (gas chromatography/mass spectroscopy) using Shimadzu QP2010SE equipped with Supelco Omegawax column, as described previously. Total ion current in the range of 50-400 m/z was used for quantification of the methyl esters. For LC/MS/MS (liquid chromatography/tandem mass spectroscopy) analysis, the lipids were extracted by the procedure of Ivanova et al.. The analysis of molecular species of phospholipids was performed on an ABSciex QTRAP mass spectrometer (Redwood City, CA, USA) coupled with Agilent 2600 UPLC system (Santa Clara, CA, USA), by multiple reaction monitoring. The internal standards 17:0 LPC, di 17:0 PC, and di 17:0 PE (phosphatidylethanolamine) were used for the quantification of the corresponding molecular species, without applying any correction factors for the differences in the ion intensity of different molecular species.
Statistics and correlations: The significance of differences between treatment groups was determined by a one-way ANOVA, with Tukey post-hoc multiple comparison corrections or unpaired t-test between control and treated samples adjusted with Holm-Sidak method (Graphpad Prism 8.0, San Diego, CA, USA). […]

## CC/C=C\C/C=C\C/C=C\C/C=C\C/C=C\C/C=C\CCC(=O)OC[C@H](COP(=O)([O-])OCC[N+](C)(C)C)OC(=O)CC/C=C\C/C=C\C/C=C\C/C=C\C/C=C\C/C=C\CC [PC-DHA]
10 mg DHA daily by gavage
  rat retinal fatty acid composition, 12:0, Mean: 4.57 % of total FA
  rat retinal fatty acid composition, 14:0, Mean: 0.97 % of total FA
  rat retinal fatty acid composition, 16:0, Mean: 19.06 % of total FA
  rat retinal fatty acid composition, 16:0 DMA, Mean: 0.05 % of total FA
  rat retinal fatty acid composition, 16:1 (n-7), Mean: 0.65 % of total FA
  rat retinal fatty acid composition, 17:1 (n-7), Mean: 0.03 % of total FA
  rat retinal fatty acid composition, 18:0, Mean: 17.79 % of total FA
  rat retinal fatty acid composition, 18:0 DMA, Mean: 0.03 % of total FA
  rat retinal fatty acid composition, 18:1 (n-7), Mean: 3.91 % of total FA
  rat retinal fatty acid composition, 18:1 (n-9), Mean: 17.70 % of total FA
  rat retinal fatty acid composition, 18:1 DMA, Mean: 0.06 % of total FA
  rat retinal fatty acid composition, 18:2 (n-6), Mean: 0.95 % of total FA
  rat retinal fatty acid composition, 18:3 (n-3), Mean: 0.07 % of total FA
  rat retinal fatty acid composition, 18:3 (n-6), Mean: 0.49 % of total FA
  rat retinal fatty acid composition, 20:0, Mean: 0.05 % of total FA
  rat retinal fatty acid composition, 20:1 (n-9), Mean: 0.07 % of total FA
  rat retinal fatty acid composition, 20:2 (n-6), Mean: 0.06 % of total FA
  rat retinal fatty acid composition, 20:3 (n-6), Mean: 0.06 % of total FA
  rat retinal fatty acid composition, 20:4 (n-6), Mean: 8.45 % of total FA
  rat retinal fatty acid composition, 20:5 (n-3), Mean: 0.06 % of total FA
  rat retinal fatty acid composition, 22:0, Mean: 0.07 % of total FA
  rat retinal fatty acid composition, 22:2 (n-6), Mean: 0.12 % of total FA
  rat retinal fatty acid composition, 22:4 (n-6), Mean: 0.07 % of total FA
  rat retinal fatty acid composition, 22:5 (n-3), Mean: 0.06 % of total FA
  rat retinal fatty acid composition, 22:5 (n-6), Mean: 0.02 % of total FA
  rat retinal fatty acid composition, 22:6 (n-3), Mean: 24.53 % of total FA
  rat retinal fatty acid composition, 24:1 (n-9), Mean: 0.05 % of total FA
rats, 10 mg DHA/day (40 mg DHA/kg)
  change of the percentage of DHA in retina versus control: +45%
